{"source": "patent US20220135667A1", "about": "“THERAPEUTIC COMBINATIONS AND COMPOSITIONS FOR THE TREATMENT OF INFLAMMATORY BOWEL DISEASE (II)” (RIJSUNIVERSITEIT GRONINGEN, priority 2019, published 2022)", "test_system": "CD patients", "test": "prospective clinical intervention study of riboflavin in CD patients", "assay_type": "in vivo, human", "details": "100 mg riboflavin daily for 3 weeks", "method": "In a prospective clinical intervention study, 70 CD patients were included and divided into two groups with (active) and without (quiescent) evidence of mucosal inflammation (defined by fecal calprotectin (FC) cut-off value: 200 μg/g). Patients received 100 mg riboflavin daily for 3 weeks. Clinical disease activity (Harvey-Bradshaw Index: HBI), inflammatory biomarkers (including interleukin 2) as well as fecal microbial composition (including pathogenic Enterobacteriaceae including E. coli) were analyzed before and after riboflavin intervention.", "data": [{"molecule": "Cc1cc2nc3c(=O)[nH]c(=O)nc-3n(C[C@H](O)[C@H](O)[C@H](O)CO)c2cc1C", "note": "[riboflavin]", "values": [{"measurement": "fecal calprotectin", "setting": "patients with TNF-alpha inhibitor treatment (FIG. 4)", "result": "further reduction"}, {"measurement": "proinflammatory cytokine IL2", "setting": "patients with TNF-alpha inhibitor treatment (FIG. 5)", "result": "further reduction"}, {"measurement": "Enterobacteriaceae including E. coli (fecal microbial composition)", "setting": "patients with TNF-alpha inhibitor treatment (FIG. 6)", "result": "further reduction"}, {"measurement": "clinical disease activity (Harvey-Bradshaw Index: HBI)", "setting": "patients with TNF-alpha inhibitor treatment, both active and quiescent disease, before vs after (FIG. 1-3)", "result": "further reduced"}, {"measurement": "clinical disease activity (Harvey-Bradshaw Index: HBI)", "setting": "patients with mesalazine treatment (FIG. 1-3)", "result": "not the case (not as pronounced as)"}]}]}
